pIC50: −log10 of the molar value.
What follows are compounds tested against CSF-1R (Homo sapiens, UniProt P07333) (assay: Peptide (non-phosphorylated) assay, fluorescence polarization competition immunoassay). Details: 0.7 nM CSF-1R, 308 μM SYEGNSYTFIDPTQ peptide, 1 mM ATP, 80 min; mean of at least three determinations; read-out: c-fms Peptide IC50.
Type: biochemical
In short: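 Read-out is fluorescence polarization: after EDTA quench, anti-phosphotyrosine antibody plus PTK green tracer compete with the phosphorylated peptide for 30 min. The CSF-1R reaction itself ran 80 min at room temperature after ATP addition. DMSO (4%) wells served as controls, positive controls pre-treated with EDTA.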

CSF-1R, sequence (P07333 20-972): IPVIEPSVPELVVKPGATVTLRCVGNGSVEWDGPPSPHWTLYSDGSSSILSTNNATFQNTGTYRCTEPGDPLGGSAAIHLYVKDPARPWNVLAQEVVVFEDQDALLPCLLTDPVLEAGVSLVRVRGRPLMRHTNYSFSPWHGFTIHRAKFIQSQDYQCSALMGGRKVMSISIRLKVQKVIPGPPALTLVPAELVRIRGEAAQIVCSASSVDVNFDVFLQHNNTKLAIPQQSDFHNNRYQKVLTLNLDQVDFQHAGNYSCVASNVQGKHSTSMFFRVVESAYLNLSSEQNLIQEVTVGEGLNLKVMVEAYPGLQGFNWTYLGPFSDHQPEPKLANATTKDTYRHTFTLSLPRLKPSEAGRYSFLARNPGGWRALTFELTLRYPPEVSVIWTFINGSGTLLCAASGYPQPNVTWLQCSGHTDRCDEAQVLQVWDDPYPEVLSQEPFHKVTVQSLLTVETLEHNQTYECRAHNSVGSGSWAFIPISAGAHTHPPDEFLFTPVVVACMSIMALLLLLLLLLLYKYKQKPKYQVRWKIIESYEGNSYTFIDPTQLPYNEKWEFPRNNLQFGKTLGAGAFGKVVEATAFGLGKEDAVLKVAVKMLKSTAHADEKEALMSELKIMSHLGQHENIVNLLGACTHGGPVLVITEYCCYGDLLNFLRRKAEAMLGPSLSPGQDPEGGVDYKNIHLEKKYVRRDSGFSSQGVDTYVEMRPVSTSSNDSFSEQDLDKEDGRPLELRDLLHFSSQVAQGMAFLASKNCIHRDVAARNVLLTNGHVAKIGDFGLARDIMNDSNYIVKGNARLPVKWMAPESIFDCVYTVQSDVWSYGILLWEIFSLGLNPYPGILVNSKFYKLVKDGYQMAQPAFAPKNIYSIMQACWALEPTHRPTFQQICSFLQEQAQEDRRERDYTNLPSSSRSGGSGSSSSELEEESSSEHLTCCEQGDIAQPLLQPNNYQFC

Q: With `CCc1ccc(-n2cc(C(=O)NOC)c(=O)c3cnc(Nc4ccc(CCN5CCN(C)C(=O)C5)cc4)nc32)cc1` [Cpd 221, 8-(4-ethyl-phenyl)-2-{4-[2-(4-methyl-3-oxo-piperazin-1-yl)-ethyl]-phenylamino}-5-oxo-5,8-dihydro-pyrido[2,3-d]pyrimidine-6-carboxylic acid methoxy-amide] as the compound, how does the pIC50 read?
A: 9.06

Q: `CCc1ccc(-n2cc(C(=O)NOC)c(=O)c3cnc(Nc4ccc(C5CCCCN5CC)cc4)nc32)cc1` (stereo not shown) [Cpd 245, 8-(4-ethyl-phenyl)-2-[4-(1-ethyl-piperidin-2-yl)-phenylamino]-5-oxo-5,8-dihydro-pyrido[2,3-d]pyrimidine-6-carboxylic acid methoxy-amide] was tested. Which pIC50 did it give?
A: 9.54

Q: `CONC(=O)c1cn(-c2ccc3c(c2)CCC3)c2nc(Nc3ccc(S(=O)(=O)N4CCN(C)CC4)cc3)ncc2c1=O` [Cpd 154, 8-indan-5-yl-2-[4-(4-methyl-piperazine-1-sulfonyl)-phenylamino]-5-oxo-5,8-dihydro-pyrido[2,3-d]pyrimidine-6-carboxylic acid methoxy-amide] was tested. Which pIC50 did it give?
A: 8.14

Q: With `CONC(=O)c1cn(-c2ccc3c(c2)CCC3)c2nc(Nc3cccc(C(=O)NCCN4CCOCC4)c3)ncc2c1=O` [Cpd 198, 8-indan-5-yl-2-[3-(2-morpholin-4-yl-ethylcarbamoyl)-phenylamino]-5-oxo-5,8-dihydro-pyrido[2,3-d]pyrimidine-6-carboxylic acid methoxy-amide] as the compound, how does the pIC50 read?
A: 8.38

Q: How did the pIC50 turn out when `CONC(=O)c1cn(C2CCCCC2)c2nc(Nc3ccc(CCN4CCN(C)CC4)cc3)ncc2c1=O` [Cpd 18, 8-cyclohexyl-2-{4-[2-(4-methyl-piperazin-1-yl)-ethyl]-phenylamino}-5-oxo-5,8-dihydro-pyrido[2,3-d]pyrimidine-6-carboxylic acid methoxy-amide] was run?
A: 9.52

Q: How did the pIC50 turn out when `CONC(=O)c1cn(-c2ccc3c(c2)CCC3)c2nc(Nc3cccc(CCN4CCN(C)CC4)c3)ncc2c1=O` [Cpd 200, 8-indan-5-yl-2-{3-[2-(4-methyl-piperazin-1-yl)-ethyl]-phenylamino}-5-oxo-5,8-dihydro-pyrido[2,3-d]pyrimidine-6-carboxylic acid methoxy-amide] was run?
A: 8.89

Q: How did the pIC50 turn out when `CONC(=O)c1cn(-c2ccc3c(c2)CCC3)c2nc(Nc3ccc(OC4CCNCC4)cc3)ncc2c1=O` [Cpd 311, 8-indan-5-yl-5-oxo-2-[4-(piperidin-4-yloxy)-phenylamino]-5,8-dihydro-pyrido[2,3-d]pyrimidine-6-carboxylic acid methoxy-amide] was run?
A: 9.52

Q: `CCCN1CCC(c2ccc(Nc3ncc4c(=O)c(C(=O)NOC)cn(-c5ccc6c(c5)CCC6)c4n3)cc2)CC1` [Cpd 298, 8-indan-5-yl-5-oxo-2-[4-(1-propyl-piperidin-4-yl)-phenylamino]-5,8-dihydro-pyrido[2,3-d]pyrimidine-6-carboxylic acid methoxy-amide] was tested. Which pIC50 did it give?
A: 9.40

Q: `CCc1ccc(-n2cc(C(=O)NOC)c(=O)c3cnc(Nc4ccc(OC5CCN(CC(F)(F)F)CC5)cc4)nc32)cc1` [Cpd 318, 8-(4-ethyl-phenyl)-5-oxo-2-{4-[1-(2,2,2-trifluoro-ethyl)-piperidin-4-yloxy]-phenylamino}-5,8-dihydro-pyrido[2,3-d]pyrimidine-6-carboxylic acid methoxy-amide] was tested. Which pIC50 did it give?
A: 8.28

Q: `CONC(=O)c1cn(-c2ccc3c(c2)CCC3)c2nc(Nc3ccc(Cc4ccncc4)cc3)ncc2c1=O` [Cpd 173, 8-indan-5-yl-5-oxo-2-(4-pyridin-4-ylmethyl-phenylamino)-5,8-dihydro-pyrido[2,3-d]pyrimidine-6-carboxylic acid methoxy-amide] was tested. Which pIC50 did it give?
A: 9.11

Q: With `CONC(=O)c1cn(C2CCCCC2)c2nc(Nc3ccc(N4CCCC4)cc3)ncc2c1=O` [Cpd 10, 8-cyclohexyl-5-oxo-2-(4-pyrrolidin-1-yl-phenylamino)-5,8-dihydro-pyrido[2,3-d]pyrimidine-6-carboxylic acid methoxy-amide] as the compound, how does the pIC50 read?
A: 8.68

Q: `CONC(=O)c1cn(-c2ccc3c(c2)CCC3)c2nc(Nc3ccc(C4CCN(C(C)C)CC4)cc3)ncc2c1=O` [Cpd 111, 8-indan-5-yl-2-[4-(1-isopropyl-piperidin-4-yl)-phenylamino]-5-oxo-5,8-dihydro-pyrido[2,3-d]pyrimidine-6-carboxylic acid methoxy-amide] was tested. Which pIC50 did it give?
A: 9.24

Q: How did the pIC50 turn out when `CCc1ccc(-n2cc(C(=O)NOC)c(=O)c3cnc(Nc4ccc5c(c4)CC(=O)N5)nc32)cc1` [Cpd 304, 8-(4-ethyl-phenyl)-5-oxo-2-(2-oxo-2,3-dihydro-1H-indol-5-ylamino)-5,8-dihydro-pyrido[2,3-d]pyrimidine-6-carboxylic acid methoxy-amide] was run?
A: 9.22

Q: `CCN1CCC(Oc2ccc(Nc3ncc4c(=O)c(C(=O)NOC)cn(-c5ccc6c(c5)CCC6)c4n3)cc2)CC1` [Cpd 312, 2-[4-(1-ethyl-piperidin-4-yloxy)-phenylamino]-8-indan-5-yl-5-oxo-5,8-dihydro-pyrido[2,3-d]pyrimidine-6-carboxylic acid methoxy-amide] was tested. Which pIC50 did it give?
A: 9.70

Q: `CONC(=O)c1cn(C2CCCC2)c2nc(Nc3ccc(CN4CCCC4=O)cc3)ncc2c1=O` [Cpd 37, 8-cyclopentyl-5-oxo-2-[4-(2-oxo-pyrrolidin-1-ylmethyl)-phenylamino]-5,8-dihydro-pyrido[2,3-d]pyrimidine-6-carboxylic acid methoxy-amide] was tested. Which pIC50 did it give?
A: 8.82

Q: How did the pIC50 turn out when `CONC(=O)c1cn(-c2ccc3c(c2)CCC3)c2nc(Nc3ccc(CN4CCCC4=O)cc3)ncc2c1=O` [Cpd 9, 8-indan-5-yl-5-oxo-2-[4-(2-oxo-pyrrolidin-1-ylmethyl)-phenylamino]-5,8-dihydro-pyrido[2,3-d]pyrimidine-6-carboxylic acid methoxy-amide] was run?
A: 9.62

Q: How did the pIC50 turn out when `CCc1ccc(-n2cc(C(=O)NOC)c(=O)c3cnc(Nc4ccc(OC5CCNCC5)cc4)nc32)cc1` [Cpd 307, 8-(4-ethyl-phenyl)-5-oxo-2-[4-(piperidin-4-yloxy)-phenylamino]-5,8-dihydro-pyrido[2,3-d]pyrimidine-6-carboxylic acid methoxy-amide] was run?
A: 9.40

Q: With `CONC(=O)c1cn(-c2ccc3c(c2)CCC3)c2nc(Nc3ccc(CCCN4CCN(C)CC4)cc3)ncc2c1=O` [Cpd 151, 8-indan-5-yl-2-{4-[3-(4-methylpiperazin-1-yl)-propyl]-phenylamino}-5-oxo-5,8-dihydro-pyrido[2,3-d]pyrimidine-6-carboxylic acid methoxy-amide] as the compound, how does the pIC50 read?
A: 8.82

Q: With `CONC(=O)c1cn(-c2ccc3c(c2)CCC3)c2nc(Nc3cccc(C4CCN(C(C)=O)CC4)c3)ncc2c1=O` [Cpd 197, 2-[3-(1-acetyl-piperidin-4-yl)-phenylamino]-8-indan-5-yl-5-oxo-5,8-dihydro-pyrido[2,3-d]pyrimidine-6-carboxylic acid methoxy-amide] as the compound, how does the pIC50 read?
A: 8.85

Q: `O=C(NO)c1cn(C2CCCCC2)c2nc(Nc3ccc(CCN4CCCC4)cc3)ncc2c1=O` [Cpd 17, 8-cyclohexyl-5-oxo-2-[4-(2-pyrrolidin-1-yl-ethyl)-phenylamino]-5,8-dihydro-pyrido[2,3-d]pyrimidine-6-carboxylic acid hydroxyamide] was tested. Which pIC50 did it give?
A: 9.03

Q: `CCc1ccc(-n2cc(C(=O)NOC)c(=O)c3cnc(Nc4cc(OC)c(OC)c(OC)c4)nc32)cc1` [Cpd 305, 8-(4-ethyl-phenyl)-5-oxo-2-(3,4,5-trimethoxy-phenylamino)-5,8-dihydro-pyrido[2,3-d]pyrimidine-6-carboxylic acid methoxy-amide] was tested. Which pIC50 did it give?
A: 9.15

Q: `CONC(=O)c1cn(-c2ccc3c(c2)CCC3)c2nc(Nc3ccc(CCN4CCN(C(C)=O)CC4)cc3)ncc2c1=O` [Cpd 145, 2-{4-[2-(4-acetyl-piperazin-1-yl)-ethyl]-phenylamino}-8-indan-5-yl-5-oxo-5,8-dihydro-pyrido[2,3-d]pyrimidine-6-carboxylic acid methoxy-amide] was tested. Which pIC50 did it give?
A: 8.92

Q: How did the pIC50 turn out when `CCc1ccc(-n2cc(C(=O)NOC)c(=O)c3cnc(Nc4ccc(C5CCN(CC(=O)O)CC5)cc4)nc32)cc1` [Cpd 94, (4-{4-[8-(4-ethyl-phenyl)-6-methoxycarbamoyl-5-oxo-5,8-dihydro-pyrido[2,3-d]pyrimidin-2-ylamino]-phenyl}-piperidin-1-yl)-acetic acid] was run?
A: 9.05

Q: `CONC(=O)c1cn(-c2ccc3c(c2)CCC3)c2nc(Nc3cccc(C4(O)CCN(C)CC4)c3)ncc2c1=O` [Cpd 272, 2-[3-(4-hydroxy-1-methyl-piperidin-4-yl)-phenylamino]-8-indan-5-yl-5-oxo-5,8-dihydro-pyrido[2,3-d]pyrimidine-6-carboxylic acid methoxy-amide] was tested. Which pIC50 did it give?
A: 9.06

Q: How did the pIC50 turn out when `CONC(=O)c1cn(-c2ccc3c(c2)CCC3)c2nc(Nc3ccc(CC(=O)NN4CCCCC4)cc3)ncc2c1=O` [Cpd 102, 8-indan-5-yl-5-oxo-2-[4-(piperidin-1-ylcarbamoylmethyl)-phenylamino]-5,8-dihydro-pyrido[2,3-d]pyrimidine-6-carboxylic acid methoxy-amide] was run?
A: 8.64

Q: `CONC(=O)c1cn(-c2ccc3c(c2)CCC3)c2nc(Nc3ccc(C4=CCN(C)CC4)cc3)ncc2c1=O` [Cpd 235, 8-indan-5-yl-2-[4-(1-methyl-1,2,3,6-tetrahydro-pyridin-4-yl)-phenylamino]-5-oxo-5,8-dihydro-pyrido[2,3-d]pyrimidine-6-carboxylic acid methoxy-amide] was tested. Which pIC50 did it give?
A: 9.27

Q: `CCN1CCCC(Oc2cccc(Nc3ncc4c(=O)c(C(=O)NOC)cn(-c5ccc6c(c5)CCC6)c4n3)c2)C1` (stereo not shown) [Cpd 251, 2-[3-(1-ethyl-piperidin-3-yloxy)-phenylamino]-8-indan-5-yl-5-oxo-5,8-dihydro-pyrido[2,3-d]pyrimidine-6-carboxylic acid methoxy-amide] was tested. Which pIC50 did it give?
A: 9.03

Q: `CCN1CCC(c2ccc(Nc3ncc4c(=O)c(C(=O)NOC)cn(C5CCC(C)(C)CC5)c4n3)cc2)CC1` [Cpd 208, 8-(4,4-dimethyl-cyclohexyl)-2-[4-(1-ethyl-piperidin-4-yl)-phenylamino]-5-oxo-5,8-dihydro-pyrido[2,3-d]pyrimidine-6-carboxylic acid methoxy-amide] was tested. Which pIC50 did it give?
A: 9.40

Reference: patent US20080114007A1 (priority 2006, published 2008)
